{
  "source": "patent US6468964B1",
  "about": "“Control of acidic gut syndrome” (University of New England, of Armidale, priority 1997, dated 2002)",
  "key": {"[1]": {"tested_on": "acid accumulation in the hind gut", "assay": "Acidic gut syndrome in pigs fed HGF diet: digesta/faecal pH and faecal consistency", "format": "in vivo, pig", "text": "Pigs were weaned at 4 weeks of age and housed individually in pens with concrete floors with weld mesh dividing walls in temperature controlled facilities. The pens were cleaned twice per day and drinking water was provided by an automatic watering system. All animals were handled daily to acclimatise them to experimental procedures associated with sampling.\nPiglets were fed ad libitum on the basal diet for two weeks until commencement of dietary treatments. The diets were formulated to ensure balanced provisions of nutrients for growth and contained 67.5% carbohydrate (rice, cornflour and raftilose) and 32.5% protein mix. The protein mix contained 55% meat meal, 32% fishmeal, 6% casein and 6% vitamins, oil and synthetic amino acids. The proportion of total carbohydrates contributed by rice, corn flour and raftilose on each day of the study is shown in Table 1 together with the total amount offered per pig.\n1. Daily collection of faeces from the pens of each pig to assess faecal consistency and for measurement of pH. Faecal consistency was assessed on a scale 1 to 5 with 1 being liquid diarrhoea and 5 being dry, separate, well formed faeces.\n(§1) 7. On day 7, half of the pigs in each treatment group were euthanased with pentobarbitone. Post mortem measurements were made of size of the digestive tract, the pH of diqesta in different part of the tract and the digestive tract and other organs were examined for any sign of abnormal tissue appearance. On day 8 the remaining pigs were euthanased and the same post mortem measurements made on these animals."}, "[2]": {"tested_on": "Caecal Lactobacilli", "assay": "Pigs fed HGF diet: caecal Lactobacilli count", "format": "in vivo", "settings": "HGF diet with 25 mg virginiamycin/kg DM", "text": "(§2) Studies of rapid carbohydrate fermentation and acid build up in the hind gut of sheep and horses have shown that the concentration of volatile fatty acids (VFA) starts to increase and pH starts to drop before there is a proliferation of gram positive bacteria (particularly Streptococcus bovis and Lactobacilli) capable of producing lactic-acid. Lactic acid is a stronger acid than the VFA and is not absorbed from the caecum as quickly as VFA, and this combination of factors leads to low pH which is the first step in development of acidic gut syndrome. Virginiamycin was included in the diet of one of the two dietary treatments containing raftilose and high-maize starch to investigate its effectiveness in controlling lactic acid accumulation and hind gut pH as a potential method for preventing or controlling acidic gut syndrome.\nas §1"}, "[3]": {"tested_on": "Caecal Strep. Bovis", "assay": "Pigs fed HGF diet: caecal Strep. bovis count", "format": "in vivo, Streptococcus bovis", "settings": "HGF diet with 25 mg virginiamycin/kg DM", "text": "as §2, §1"}, "[4]": {"tested_on": "immune system (neutrophils, lymphocytes, acute phase protein, IL-1)", "assay": "Pigs fed HGF diet: changes in immune system (white blood cells, acute phase protein, IL-1)", "format": "in vivo, pig", "settings": "HGF diet with 25 mg virginiamycin/kg DM"}, "[5]": {"assay": "Pigs fed HGF diet: feed intake, weight change, weight of washed gut", "format": "in vivo, pig", "description": "3. Body weights were measured 2 days before the start of feeding experimental diets, on day 3 and day 7.\n5. The amount of feed not consumed was measured each afternoon and intake calculated as a % of amount offered.\nas §1"}, "[6]": {"tested_on": "fermentative acidosis in the rumen and hind gut", "assay": "Sheep overfed high-barley pellets: rumen and faecal pH, lactate, rumen VFA", "format": "in vivo", "text": "(§3) Six full mouth cannulated cross-bred sheep, weighing approximately 45 kg were used in the trial. These sheep were housed in individual pens on a wood grating floor in an enclosed animal house. All sheep were fed once per day, and water was available at all times ad libitum. All sheep were fed a basal diet consisting of oaten chaff plus 1% urea and 1% mineral pre-mix (Pfizer Animal Health Pty. Ltd.). At time 0 in the experiment, all sheep were fed a pellet containing high levels of barley with or without virginiamycin (VM). The sheep were autopsied 48 hours after grain feeding.\n(§4) All sheep were offered 1000 g of a pellet containing 76% barley, 17% lucerne, 3.5% cottonseed meal, 1% urea and 1.5% limestone at the start of the experiment. The sheep were then offered another 1000 g of the pellet 12 hours later. All sheep consumed all of the pelleted feed offered. Half of the sheep received the pellets with no dietary additives, and the other half received the pellets with virginiamycin (VM) added at 30 mg/kg. Eskalin (Pfizer Animal Health Pty. Ltd., 20 g virginiamycin/kg) was included at 1.5 g/kg pellets to provide 30 mg VM/kg in the mixed diet. The animals were monitored closely after receiving grain and autopsied 48 hours after initial grain feeding.\n(§5) All sheep were fitted with faecal collection bags, which consisted of a PVC ring attached to the posterior of the sheep to which a plastic bag was attached in order to collect total faecal output. Rumen fluid was taken via the rumen fistula. Rumen and faecal samples were taken at 4 hourly intervals for the first 12 hours after grain feeding. Samples were then taken at 24, 36 and 48 hours after initial feeding.\nRumen fluid pH was analysed immediately using a portable pH meter (‘Piccolo 2’ ATC pH meter by Hanna Instruments). A sample was also added to a 20 mL McCartney bottle containing approximately 7 μL of concentrated H2SO4, and frozen for later analysis of lactic and volatile fatty acids.\n(§6) A representative 20 g sample of faeces was taken into a small vial, an equal volume of water added and mixed well. The faecal pH was then measured immediately on this sample as for rumen fluid. A further sample was placed in a sterile container and an equal weight of deionised water added to it. This was mixed well using a sterile spatula, and then centrifuged at 15000 rpm for 20 mins. The supernatant was then transferred using a sterile pipette to 3 individual microfuge tubes and frozen for later analysis for TNF-α. TNF-α was measured in the faeces using an ELISA method."}, "[7]": {"tested_on": "TNF-α", "assay": "Sheep overfed high-barley pellets: faecal TNF-α by ELISA", "format": "in vivo", "settings": "VM 30 mg/kg pellets; for Faecal TNF-α concentration, individual sheep: sheep 2, 4, 6, listed as VM", "text": "as §3, §4, §5, §6"}, "[8]": {"tested_on": "acid accumulation in the hind gut", "assay": "Acidic gut syndrome in pigs fed HGF diet: digesta/faecal pH and faecal consistency", "format": "in vivo, pig", "settings": "HGF diet with 25 mg virginiamycin/kg DM, post mortem"}, "[9]": {"settings": "pigs on HGF diet, 25 mg virginiamycin/kg DM"}, "[10]": {"settings": "weaner pigs, HGF diet with 25 mg virginiamycin/kg dietary DM, post mortem"}, "[11]": {"settings": "pigs, post mortem, HGF diet with 25 mg virginiamycin/kg DM"}, "[12]": {"settings": "proportion mmol/100 mmol, sheep, VM 30 mg/kg"}, "[13]": {"settings": "sheep fed high grain pellets, VM 30 mg/kg"}, "[14]": {"settings": "sheep overfed grain, VM 30 mg/kg pellets"}, "[15]": {"settings": "sheep overfed grain, VM 30 mg/kg, 36 and 48 hour samples"}, "[16]": {"settings": "sheep, VM 30 mg/kg versus no additive"}},
  "note": "Where “and” joins values, the source holds several entries; their conditions need not be identical. Equal values may be shown once. Marks after values point to notes of the source that are not given here.",
  "data": [
    {"substance": "virginiamycin", "values": [
      {"measurement": "pH in different parts of the digestive tract (FIG. 6, words)", "setting": "[1]; pigs fed HGF diet with or without virginiamycin", "result": "consistent effect in reducing acid accumulation (increasing pH) in all parts of the digestive tract"},
      {"measurement": "Acid accumulation in the hind gut and in faeces", "setting": "[1]; [9]", "result": "effective in reducing the extent of acid accumulation"},
      {"measurement": "Effect on faecal consistency", "setting": "[1]; [9]", "result": "significantly improved faecal consistency"},
      {"measurement": "Ileal pH", "setting": "[1]; pigs, HGF diet with 25 mg virginiamycin/kg DM, post mortem", "result": 6.3},
      {"measurement": "Faecal consistency (av d1-5)", "setting": "[1]; scale 1 to 5, 1 liquid diarrhoea, 5 dry well formed faeces, pigs, HGF diet with 25 mg virginiamycin/kg DM", "result": "3.53^c"},
      {"measurement": "Average faecal pH", "setting": "[1]; weaner pigs, HGF diet with 25 mg virginiamycin/kg DM", "result": "6.0^b"},
      {"measurement": "Faecal pH (day 2)", "setting": "[1]; weaner pigs, HGF diet with 25 mg virginiamycin/kg DM, day 2", "result": "6.3^b"},
      {"measurement": "Faecal pH (day 5)", "setting": "[1]; weaner pigs, HGF diet with 25 mg virginiamycin/kg DM, day 5", "result": "6.0^b"},
      {"measurement": "Caecal pH", "setting": "[1]; [10]", "result": "5.7^ab"},
      {"measurement": "Rectal pH", "setting": "[1]; [10]", "result": "6.3^b"},
      {"measurement": "Caecal Lactobacilli", "setting": "[2]", "result": "1.4 × 10^10"},
      {"measurement": "Caecal Strep. Bovis", "setting": "[3]", "result": "3.2 × 10^9"},
      {"measurement": "Acute phase protein CD3", "setting": "[4]", "result": 5.9},
      {"measurement": "IL-1 (av. days 1, 2, 5 & 8)", "setting": "[4]", "result": 1.6},
      {"measurement": "IL-1 (day 5)", "setting": "[4]; day 5", "result": 2.0},
      {"measurement": "Lymphocytes (L)", "setting": "[4]; jugular blood", "result": 11.0},
      {"measurement": "N:L ratio", "setting": "[4]; neutrophil to lymphocyte ratio", "result": 0.57, "unit": "a"},
      {"measurement": "Feed intake versus HGF diet alone", "setting": "[5]; pigs on HGF diet treated with virginiamycin", "result": "higher intake"},
      {"measurement": "Weight change (days 3 to 7)", "setting": "[5]; pigs, HGF diet with 25 mg virginiamycin/kg DM", "result": 1.13},
      {"measurement": "Intake (% offered) (day 4)", "setting": "[5]; pigs, HGF diet with 25 mg virginiamycin/kg DM, day 4", "result": "81^ab % offered"},
      {"measurement": "Av intake (days 1 to 8)", "setting": "[5]; pigs, HGF diet with 25 mg virginiamycin/kg DM, intake calculated as % of amount offered", "result": "83^ab"},
      {"measurement": "Weight of washed gut (g): Caecum", "setting": "[5]; [11]", "result": "31.4^a g"},
      {"measurement": "Weight of washed gut (g): Rectum", "setting": "[5]; [11]", "result": 35.1, "unit": "g"},
      {"measurement": "Weight of washed gut (g): Stomach", "setting": "[5]; [11]", "result": 115, "unit": "g"},
      {"measurement": "Rumen Ac (%)", "setting": "[6]; [12]", "result": 50.941, "unit": "%"},
      {"measurement": "Rumen But (%)", "setting": "[6]; [12]", "result": 8.75, "unit": "%"},
      {"measurement": "Rumen Pr (%)", "setting": "[6]; [12]", "result": 34.36, "unit": "%"},
      {"measurement": "Ratio of Propionate to Acetate+(2×Butyrate)", "setting": "[6]; rumen, sheep fed VM versus no additive", "result": "significantly higher"},
      {"measurement": "Rumen D-Lactic acid", "setting": "[6]; [13]", "result": 25.12, "unit": "mmol/L"},
      {"measurement": "Rumen L-Lactic acid", "setting": "[6]; [13]", "result": 7.33, "unit": "mmol/L"},
      {"measurement": "Rumen total VFA", "setting": "[6]; [13]", "result": 81.80, "unit": "mmol/L"},
      {"measurement": "Average faecal pH", "setting": "[6]; [14]", "result": 7.28},
      {"measurement": "Average rumen pH", "setting": "[6]; [14]", "result": 5.84},
      {"measurement": "Faecal D-lactate", "setting": "[6]; [15]", "result": 7.43},
      {"measurement": "Faecal L-lactate", "setting": "[6]; [15]", "result": 28.2},
      {"measurement": "Difference in rumen or faecal pH between treatment groups", "setting": "[6]; [16]", "result": "no differences"},
      {"measurement": "Treatment effect on rumen lactic acid concentration", "setting": "[6]; [16]", "result": "No treatment effects"},
      {"measurement": "pH in different parts of the digestive tract (FIG. 8, words)", "setting": "[6]; sheep, high-barley pellets with or without virginiamycin, autopsy at 48 hours", "result": "consistent effect in reducing acid accumulation (increasing pH) in all parts of the digestive tract"},
      {"measurement": "Faecal TNF-α concentration, group average", "setting": "[7]; experimental hour 0", "result": 12333},
      {"measurement": "Faecal TNF-α concentration, individual sheep", "setting": "[7]; experimental hour 0", "result": "9000 and 16000 and 12000"},
      {"measurement": "Faecal TNF-α concentration, group average", "setting": "[7]; experimental hour 24", "result": 17667},
      {"measurement": "Faecal TNF-α concentration, individual sheep", "setting": "[7]; experimental hour 24", "result": "12000 and 24000 and 17000"},
      {"measurement": "Faecal TNF-α concentration, group average", "setting": "[7]; experimental hour 36", "result": 62444},
      {"measurement": "Faecal TNF-α concentration, individual sheep", "setting": "[7]; experimental hour 36", "result": "98333 and 64000 and 25000"},
      {"measurement": "Faecal TNF-α concentration, group average", "setting": "[7]; experimental hour 48", "result": 124222},
      {"measurement": "Faecal TNF-α concentration, individual sheep", "setting": "[7]; experimental hour 48", "result": "230667 and 66000 and 76000"},
      {"measurement": "Stomach pH (days 8/9)", "setting": "[8]", "result": 3.6}
    ]}
  ]
}
